# Key:
# HCT 116 cells = assay: In vitro cytotoxicity, CellTiter-Glo, 72 h (Example 11); format: cell-based; conditions: Homo sapiens, HCT-116, 72 h
# Description: Alternatively, the in vitro cytotoxicity of the compounds of the invention may be measured as described in this example. 180 μl of HCT 116 cells (ATCC, Cat # CCL-247) in McCoy's 5a Medium Modified (Sigma-Aldrich), St. Louis, Mo.)+10% fetal bovine serum were seeded at a density of 5,000 cells/well in a white opaque 96-well plate and incubated for 24 hours at […] in a 5% CO2 incubator. Twenty-four hours post cell seeding, 20 μl of 10× test compounds were diluted such that the final concentrations of the test compounds were in μM concentration. Half log dilutions were used, starting from 10 μM through 0.0001 μM. Puromycin and untreated cells were used as […]. The cells were incubated with the compounds for 72 hours at […] in a 5% CO2 incubator. After 72 hrs, 100 μl/well of CellTiter-Glo® Luminescent Cell Viability Assay reagent (Promega, Inc., Madison, Wis.; Cat # G7573) was added to the plates and incubated at room temperature for 30 minutes. The luminescence signals were captured using EnVision 2105 Multimode Plate Reader (PerkinElmer, Waltham, Mass.). The data were analyzed using non-linear regression curve fit (sigmoidal dose response) in GraphPad Prism software (GraphPad Software, La Jolla, Calif.) by plotting the concentration of drug on the X-axis and the mean % inhibition values on the Y-axis.
# PANC 05.04 = assay: In vitro cytotoxicity on pancreatic cancer cell line (Example 12); format: cell-based, human
# Description: (§1) Various cancer cell lines were obtained from the American Type Culture Collection (ATCC)). The cells were cultured in a humidified 5% CO2 incubator in a media consisting of RPMI 1640, L-glutamine, and 10% FBS. The cells were passaged as needed using standard tissue culture techniques. The cells were harvested and plated out into 96-well tissue culture treated plates at a density of 5000 cells per well. After allowing the cells to equilibrate for ˜24 hr in a humidified 5% CO2 incubator, the cells were treated with the test compounds at the indicated concentrations. The cells were exposed to the test compounds for three days with no media change. After the treatment period, CellTiter-Glo) Luminescent Cell Viability Assay reagent solution (Promega, Inc., Madison, Wis.; Cat. # G7573) was introduced to each well. The Cell TiterGlo-containing plates were then read on a SpectroMax® iD3 Multi-Mode Microplate reader (Molecular Devices, LLC, San Jose, Calif.). The degree of luminescence was dictated by the abundance of live cells.
# PANC 10.05 = assay: as above; format: cell-based, human
# Description: as §1
SMILES,IC50 (HCT 116 cells) [nM],IC50 (PANC 05.04) [nM],IC50 (PANC 10.05) [nM]
"COC(=O)C[C@@H]1C[C@@]2(CO2)[C@H](O)[C@@H](/C=C/C(C)=C/C[C@@H]2O[C@H](C)[C@H](NC(=O)/C=C\C(C)c3cc(OC)no3)C[C@@H]2C)O1 (stereo partly drawn) [Compound 5, Methyl 2-((3R, 5S, 7R, 8R)-8-hydroxy-7-((1E, 3E)-5-((2S, 3S, 5R, 6R)-5-((Z)-4-(3-methoxyisoxazol-5-yl)pent-2-enamido)-3,6-dimethyltetrahydro-2H-pyran-2-yl)-3-methylpenta-1,3-dienyl)-1,6-dioxaspiro[2.5]octan-5-yl)acetate]",310,–,–
CC(=O)O[C@@H](C)/C=C\C(=O)N[C@@H]1C[C@H](C)[C@H](C/C=C(C)/C=C/[C@H]2O[C@H](CC(=O)O)C[C@@]3(CO3)[C@@H]2O)O[C@@H]1C [Thailanstatin A],–,3,4
